From publication PMC10004634 (PLOS ONE, 2023)
Read-outs that look alike come from different tables or passages of the source.

Tests used:
LYNa = LYNa (Homo sapiens, UniProt P07948); test: mobility shift assay (MSA)
CSK = CSK (Homo sapiens, UniProt P41240); test: KinAffinity cell-based binding assay using PBMC; design: purchased Carna Biosciences Inc
BLK = BLK (Homo sapiens, UniProt P51451); test: Z'-Lyte kinase inhibition assay; assay type: biochemical; design: purchased Thermo Fisher Scientific (Invitrogen Z'-Lyte service); settings: 60 min preincubation
Experimental: In all the assays, each test compound was preincubated with peptide/kinase mixture or kinase/antibody mixture for 60 min at room temperature before adding the ATP solution or AlexaFluor labeled Tracer to initiate the 60-min incubation of the reactants.

TAOK3 = TAOK3 (Homo sapiens, UniProt Q9H2K8); test: biochemical; design: KINOMEscan scanMAX competition binding, DNA-tagged kinases, qPCR read-out, percent control at 300 nM
WEE2 = WEE2 (Homo sapiens, UniProt P0C1S8); test: biochemical; design: KINOMEscan scanMAX competition binding, DNA-tagged kinases, qPCR read-out, percent control at 300 nM
CAMKK1 = CAMKK1 (Homo sapiens, UniProt Q8N5S9); test: biochemical; design: KINOMEscan scanMAX competition binding, DNA-tagged kinases, qPCR read-out, percent control at 300 nM
CHEK1 = CHEK1 (Homo sapiens, UniProt O14757); test: biochemical; design: KINOMEscan scanMAX competition binding, DNA-tagged kinases, qPCR read-out, percent control at 300 nM
DDR1 = DDR1 (Homo sapiens, UniProt Q08345); test: biochemical; design: KINOMEscan scanMAX competition binding, DNA-tagged kinases, qPCR read-out, percent control at 300 nM
IRAK4 = IRAK4 (Homo sapiens, UniProt Q9NWZ3); test: biochemical; design: KINOMEscan scanMAX competition binding, DNA-tagged kinases, qPCR read-out, percent control at 300 nM
LOK = target: T1, LOK (Homo sapiens, UniProt O94804); test: biochemical; design: KINOMEscan scanMAX competition binding, DNA-tagged kinases, qPCR read-out, percent control at 300 nM
T1 construct: gene STK10

MRCKA = target: T2, MRCKA (Homo sapiens, UniProt Q5VT25); test: biochemical; design: KINOMEscan scanMAX competition binding, DNA-tagged kinases, qPCR read-out, percent control at 300 nM
T2 construct: gene CDC42BPA

OSR1 = target: T3, OSR1 (Homo sapiens, UniProt O95747); test: biochemical; design: KINOMEscan scanMAX competition binding, DNA-tagged kinases, qPCR read-out, percent control at 300 nM
T3 construct: gene OXSR1

PIK3CA(M1043I) = PIK3CA(M1043I) (Homo sapiens, UniProt P42336, M1043I); test: biochemical; design: KINOMEscan scanMAX competition binding, DNA-tagged kinases, qPCR read-out, percent control at 300 nM
PIK3CD = PIK3CD (Homo sapiens, UniProt O00329); test: biochemical; design: KINOMEscan scanMAX competition binding, DNA-tagged kinases, qPCR read-out, percent control at 300 nM
RAF1 = RAF1 (Homo sapiens, UniProt P04049); test: biochemical; design: KINOMEscan scanMAX competition binding, DNA-tagged kinases, qPCR read-out, percent control at 300 nM
RET(V804L) = RET(V804L) (Homo sapiens, UniProt P07949, V804L); test: biochemical; design: KINOMEscan scanMAX competition binding, DNA-tagged kinases, qPCR read-out, percent control at 300 nM
ROCK1 = ROCK1 (Homo sapiens, UniProt Q13464); test: biochemical; design: KINOMEscan scanMAX competition binding, DNA-tagged kinases, qPCR read-out, percent control at 300 nM
[1] = read-out: Percent control / Ibrutinib
[2] = read-out: Percent control / Zanubrutinib
[3] = read-out: Percent control / Acalabrutinib

RAF1, sequence (P04049 whole entry): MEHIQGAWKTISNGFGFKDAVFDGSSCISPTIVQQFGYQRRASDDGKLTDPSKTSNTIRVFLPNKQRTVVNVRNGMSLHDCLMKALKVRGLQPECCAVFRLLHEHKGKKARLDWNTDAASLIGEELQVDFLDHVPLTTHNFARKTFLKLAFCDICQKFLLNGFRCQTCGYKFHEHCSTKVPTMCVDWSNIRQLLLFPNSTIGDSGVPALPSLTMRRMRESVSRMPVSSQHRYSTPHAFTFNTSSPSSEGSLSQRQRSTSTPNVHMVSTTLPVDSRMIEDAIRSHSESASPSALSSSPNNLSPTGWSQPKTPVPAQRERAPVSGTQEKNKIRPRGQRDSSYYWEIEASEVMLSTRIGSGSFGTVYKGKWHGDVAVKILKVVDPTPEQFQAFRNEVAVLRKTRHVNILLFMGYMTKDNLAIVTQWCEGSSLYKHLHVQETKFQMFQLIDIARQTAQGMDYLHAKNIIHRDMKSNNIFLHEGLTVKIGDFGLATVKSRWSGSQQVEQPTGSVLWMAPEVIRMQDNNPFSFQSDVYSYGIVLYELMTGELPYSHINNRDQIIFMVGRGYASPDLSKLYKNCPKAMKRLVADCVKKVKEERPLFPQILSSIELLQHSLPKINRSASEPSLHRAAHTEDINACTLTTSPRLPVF
RET(V804L), sequence (P07949 whole entry V804L): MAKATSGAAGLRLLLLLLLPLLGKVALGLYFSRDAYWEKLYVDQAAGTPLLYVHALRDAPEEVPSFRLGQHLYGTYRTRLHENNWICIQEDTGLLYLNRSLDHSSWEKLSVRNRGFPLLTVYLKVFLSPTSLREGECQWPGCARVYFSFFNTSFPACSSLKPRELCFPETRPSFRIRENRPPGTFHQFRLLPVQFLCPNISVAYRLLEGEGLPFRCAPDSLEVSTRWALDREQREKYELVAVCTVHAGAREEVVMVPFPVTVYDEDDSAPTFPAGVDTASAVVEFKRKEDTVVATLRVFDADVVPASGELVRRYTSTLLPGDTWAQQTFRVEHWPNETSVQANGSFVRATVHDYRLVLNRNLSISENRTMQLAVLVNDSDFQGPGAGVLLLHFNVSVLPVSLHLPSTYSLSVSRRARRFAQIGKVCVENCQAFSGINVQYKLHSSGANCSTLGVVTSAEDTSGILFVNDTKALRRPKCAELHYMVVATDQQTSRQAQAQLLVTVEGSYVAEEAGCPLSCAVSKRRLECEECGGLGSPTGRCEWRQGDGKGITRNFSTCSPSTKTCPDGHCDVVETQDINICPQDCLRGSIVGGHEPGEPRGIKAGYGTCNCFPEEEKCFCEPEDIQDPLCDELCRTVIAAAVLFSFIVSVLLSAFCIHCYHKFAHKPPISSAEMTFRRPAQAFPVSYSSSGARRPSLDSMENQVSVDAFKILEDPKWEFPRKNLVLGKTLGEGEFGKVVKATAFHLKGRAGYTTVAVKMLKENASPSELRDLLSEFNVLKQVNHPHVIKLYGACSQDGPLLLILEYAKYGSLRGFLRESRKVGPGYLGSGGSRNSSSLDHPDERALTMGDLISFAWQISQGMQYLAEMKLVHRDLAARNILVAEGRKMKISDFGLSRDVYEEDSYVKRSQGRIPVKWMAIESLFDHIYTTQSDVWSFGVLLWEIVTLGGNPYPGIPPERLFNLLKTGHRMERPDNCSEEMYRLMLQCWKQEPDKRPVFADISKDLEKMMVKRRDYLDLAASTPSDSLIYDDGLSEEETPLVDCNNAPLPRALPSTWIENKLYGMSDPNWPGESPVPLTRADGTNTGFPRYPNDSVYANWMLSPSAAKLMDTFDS
T3 sequence (O95747 whole entry): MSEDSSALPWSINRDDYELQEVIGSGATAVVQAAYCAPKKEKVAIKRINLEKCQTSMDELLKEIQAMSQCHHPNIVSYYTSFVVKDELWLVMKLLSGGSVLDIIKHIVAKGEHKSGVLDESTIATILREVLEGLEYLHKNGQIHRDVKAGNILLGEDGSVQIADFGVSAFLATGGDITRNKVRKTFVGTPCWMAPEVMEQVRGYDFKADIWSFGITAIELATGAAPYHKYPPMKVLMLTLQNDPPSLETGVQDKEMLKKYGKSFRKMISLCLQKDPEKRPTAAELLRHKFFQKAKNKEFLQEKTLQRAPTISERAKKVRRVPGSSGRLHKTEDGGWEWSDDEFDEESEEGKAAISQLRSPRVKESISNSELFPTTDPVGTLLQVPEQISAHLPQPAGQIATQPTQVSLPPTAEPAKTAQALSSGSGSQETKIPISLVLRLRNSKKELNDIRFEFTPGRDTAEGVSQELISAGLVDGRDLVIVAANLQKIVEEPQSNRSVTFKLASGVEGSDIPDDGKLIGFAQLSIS
WEE2, sequence (P0C1S8 whole entry): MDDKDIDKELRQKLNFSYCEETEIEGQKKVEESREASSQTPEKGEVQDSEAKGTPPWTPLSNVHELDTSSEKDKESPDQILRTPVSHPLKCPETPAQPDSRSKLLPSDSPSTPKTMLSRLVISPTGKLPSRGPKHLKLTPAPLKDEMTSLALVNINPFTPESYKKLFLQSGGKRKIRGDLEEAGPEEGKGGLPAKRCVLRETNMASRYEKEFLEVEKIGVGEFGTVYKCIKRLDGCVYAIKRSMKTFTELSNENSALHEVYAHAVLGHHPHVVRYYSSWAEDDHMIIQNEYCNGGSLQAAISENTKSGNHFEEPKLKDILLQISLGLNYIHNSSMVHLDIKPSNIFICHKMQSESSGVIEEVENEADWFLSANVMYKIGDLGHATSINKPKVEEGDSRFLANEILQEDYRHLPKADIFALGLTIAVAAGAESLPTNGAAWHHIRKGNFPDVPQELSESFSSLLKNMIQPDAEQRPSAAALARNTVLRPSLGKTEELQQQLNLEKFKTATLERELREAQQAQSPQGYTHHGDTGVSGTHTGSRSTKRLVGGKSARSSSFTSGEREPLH
PIK3CD, sequence (O00329 whole entry): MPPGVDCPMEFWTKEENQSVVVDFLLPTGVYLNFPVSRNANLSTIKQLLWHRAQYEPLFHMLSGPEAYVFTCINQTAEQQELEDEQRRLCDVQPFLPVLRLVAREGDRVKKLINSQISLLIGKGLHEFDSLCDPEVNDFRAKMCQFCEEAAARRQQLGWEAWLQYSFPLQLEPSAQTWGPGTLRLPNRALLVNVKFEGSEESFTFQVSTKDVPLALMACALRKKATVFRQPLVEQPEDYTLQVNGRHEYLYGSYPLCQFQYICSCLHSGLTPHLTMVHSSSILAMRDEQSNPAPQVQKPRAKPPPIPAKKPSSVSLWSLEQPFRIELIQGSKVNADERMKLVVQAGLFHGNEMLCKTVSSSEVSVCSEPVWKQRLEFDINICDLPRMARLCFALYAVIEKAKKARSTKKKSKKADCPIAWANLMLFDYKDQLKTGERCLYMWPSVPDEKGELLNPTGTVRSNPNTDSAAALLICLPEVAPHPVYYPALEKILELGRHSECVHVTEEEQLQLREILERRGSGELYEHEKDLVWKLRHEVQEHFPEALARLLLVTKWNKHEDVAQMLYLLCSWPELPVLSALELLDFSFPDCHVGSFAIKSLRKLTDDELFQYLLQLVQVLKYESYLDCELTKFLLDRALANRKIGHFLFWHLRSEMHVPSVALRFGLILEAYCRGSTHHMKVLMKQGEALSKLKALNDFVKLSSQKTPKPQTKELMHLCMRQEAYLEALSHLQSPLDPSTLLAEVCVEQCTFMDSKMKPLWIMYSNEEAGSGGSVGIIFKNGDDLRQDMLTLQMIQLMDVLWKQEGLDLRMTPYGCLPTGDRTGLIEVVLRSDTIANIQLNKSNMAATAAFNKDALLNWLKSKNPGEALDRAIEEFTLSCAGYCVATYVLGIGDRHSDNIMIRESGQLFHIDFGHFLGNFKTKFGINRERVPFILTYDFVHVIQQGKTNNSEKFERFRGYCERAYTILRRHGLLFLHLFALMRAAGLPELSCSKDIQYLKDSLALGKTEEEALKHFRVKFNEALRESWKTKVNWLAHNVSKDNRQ
PIK3CA(M1043I), sequence (P42336 whole entry M1043I): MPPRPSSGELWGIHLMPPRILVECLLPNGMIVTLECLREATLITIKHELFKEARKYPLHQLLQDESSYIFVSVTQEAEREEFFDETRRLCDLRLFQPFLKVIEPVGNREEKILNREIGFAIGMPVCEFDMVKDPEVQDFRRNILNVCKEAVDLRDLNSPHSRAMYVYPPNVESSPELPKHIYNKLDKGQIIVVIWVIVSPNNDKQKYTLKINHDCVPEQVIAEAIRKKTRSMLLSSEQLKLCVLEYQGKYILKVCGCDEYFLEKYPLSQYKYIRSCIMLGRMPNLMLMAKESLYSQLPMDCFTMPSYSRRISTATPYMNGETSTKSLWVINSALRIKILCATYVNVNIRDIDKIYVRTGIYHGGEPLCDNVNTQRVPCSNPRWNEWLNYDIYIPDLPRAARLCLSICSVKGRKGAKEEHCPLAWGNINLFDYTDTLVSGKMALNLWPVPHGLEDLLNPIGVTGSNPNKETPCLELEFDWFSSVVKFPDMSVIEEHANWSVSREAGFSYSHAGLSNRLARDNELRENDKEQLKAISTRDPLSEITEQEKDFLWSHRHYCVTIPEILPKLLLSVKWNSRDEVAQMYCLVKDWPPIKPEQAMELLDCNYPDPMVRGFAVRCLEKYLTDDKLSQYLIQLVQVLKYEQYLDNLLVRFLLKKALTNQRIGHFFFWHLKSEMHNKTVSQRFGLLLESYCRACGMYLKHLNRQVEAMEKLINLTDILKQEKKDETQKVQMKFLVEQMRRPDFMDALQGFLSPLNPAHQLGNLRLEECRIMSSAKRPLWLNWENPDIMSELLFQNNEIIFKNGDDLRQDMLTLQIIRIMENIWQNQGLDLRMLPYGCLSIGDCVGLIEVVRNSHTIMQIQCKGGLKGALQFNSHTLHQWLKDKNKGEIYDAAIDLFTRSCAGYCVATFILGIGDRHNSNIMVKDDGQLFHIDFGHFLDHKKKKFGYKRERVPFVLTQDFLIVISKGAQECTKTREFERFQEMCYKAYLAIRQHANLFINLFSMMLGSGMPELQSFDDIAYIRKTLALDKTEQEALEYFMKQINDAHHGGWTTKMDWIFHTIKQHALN

Question: How did the IC50 (LYNa) turn out when CC#CC(=O)N1CC[C@@H](n2c(=O)n(-c3ccc(Oc4ccccc4)cc3)c3c(N)ncnc32)C1 [Tirabrutinib] was run?
Answer: The IC50 was 3.49 µM.

Question: And the Kd (CSK)?
Answer: The Kd was > 3 µM.

Question: What about the IC50 (BLK) of the same compound?
Answer: Its IC50 is 1.28 µM.

Question: How did the remaining binding at 0.3 µM (TAOK3; [1]) turn out when C=CC(=O)N1CCC[C@@H](n2nc(-c3ccc(Oc4ccccc4)cc3)c3c(N)ncnc32)C1 [Ibrutinib] was run?
Answer: The remaining binding at 0.3 µM was 98%.

Question: What about the remaining binding at 0.3 µM (WEE2; [1]) of the same compound?
Answer: Its remaining binding at 0.3 µM is 93%.

Question: How did the remaining binding at 0.3 µM (CAMKK1; [2]) turn out when C=CC(=O)N1CCC([C@@H]2CCNc3c(C(N)=O)c(-c4ccc(Oc5ccccc5)cc4)nn32)CC1 [Zanubrutinib] was run?
Answer: The remaining binding at 0.3 µM was 87%.

Question: And the remaining binding at 0.3 µM (CHEK1; [2])?
Answer: The remaining binding at 0.3 µM was 92%.

Question: And the remaining binding at 0.3 µM (DDR1; [2])?
Answer: Its remaining binding at 0.3 µM is 100%.

Question: What about the remaining binding at 0.3 µM (IRAK4; [2]) of the same compound?
Answer: Its remaining binding at 0.3 µM is 91%.

Question: What about the remaining binding at 0.3 µM (LOK; [2]) of the same compound?
Answer: The remaining binding at 0.3 µM was 93%.

Question: And the remaining binding at 0.3 µM (MRCKA; [2])?
Answer: The remaining binding at 0.3 µM was 100%.

Question: What about the remaining binding at 0.3 µM (OSR1; [2]) of the same compound?
Answer: The remaining binding at 0.3 µM was 100%.

Question: What about the remaining binding at 0.3 µM (PIK3CA(M1043I); [2]) of the same compound?
Answer: The remaining binding at 0.3 µM was 90%.

Question: And the remaining binding at 0.3 µM (PIK3CD; [2])?
Answer: The remaining binding at 0.3 µM was 37%.

Question: What about the remaining binding at 0.3 µM (RAF1; [2]) of the same compound?
Answer: Its remaining binding at 0.3 µM is 88%.

Question: What about the remaining binding at 0.3 µM (RET(V804L); [2]) of the same compound?
Answer: Its remaining binding at 0.3 µM is 100%.

Question: And the remaining binding at 0.3 µM (ROCK1; [2])?
Answer: Its remaining binding at 0.3 µM is 92%.

Question: With CC#CC(=O)N1CCC[C@H]1c1nc(-c2ccc(C(=O)Nc3ccccn3)cc2)c2c(N)nccn12 [Acalabrutinib] as the compound, how does the remaining binding at 0.3 µM (CAMKK1; [3]) read?
Answer: The remaining binding at 0.3 µM was 92%.

Question: And the remaining binding at 0.3 µM (CHEK1; [3])?
Answer: Its remaining binding at 0.3 µM is 88%.

Question: What about the remaining binding at 0.3 µM (DDR1; [3]) of the same compound?
Answer: Its remaining binding at 0.3 µM is 86%.

Question: What about the remaining binding at 0.3 µM (IRAK4; [3]) of the same compound?
Answer: Its remaining binding at 0.3 µM is 97%.

Question: What about the remaining binding at 0.3 µM (LOK; [3]) of the same compound?
Answer: Its remaining binding at 0.3 µM is 99%.

Question: What about the remaining binding at 0.3 µM (MRCKA; [3]) of the same compound?
Answer: The remaining binding at 0.3 µM was 96%.

Question: What about the remaining binding at 0.3 µM (OSR1; [3]) of the same compound?
Answer: Its remaining binding at 0.3 µM is 92%.

Question: What about the remaining binding at 0.3 µM (PIK3CA(M1043I); [3]) of the same compound?
Answer: The remaining binding at 0.3 µM was 90%.

Question: What about the remaining binding at 0.3 µM (PIK3CD; [3]) of the same compound?
Answer: Its remaining binding at 0.3 µM is 88%.

Question: And the remaining binding at 0.3 µM (RAF1; [3])?
Answer: The remaining binding at 0.3 µM was 75%.

Question: What about the remaining binding at 0.3 µM (RET(V804L); [3]) of the same compound?
Answer: The remaining binding at 0.3 µM was 99%.

Question: And the remaining binding at 0.3 µM (ROCK1; [3])?
Answer: Its remaining binding at 0.3 µM is 93%.

Question: What about the remaining binding at 0.3 µM (TAOK3; [3]) of the same compound?
Answer: The remaining binding at 0.3 µM was 99%.

Question: What about the remaining binding at 0.3 µM (WEE2; [3]) of the same compound?
Answer: The remaining binding at 0.3 µM was 89%.

Question: And the IC50 (LYNa)?
Answer: Its IC50 is > 10 µM.

Question: And the IC50 (BLK)?
Answer: Its IC50 is 2.27 µM.
